Entries after “also recorded” stand apart in the source; their conditions may differ.
Legend:
[1] = test system: Normal human epidermal keratinocytes (NHEK); test: TEER in NHEK treated with plant polyphenols; type: cell-based; details: for Effect on TEER at day four vs untreated control: 100 μM myricetin or Kaempferol, quercetin concentration not stated, Mann Whitney U test
Procedure: Normal human epidermal keratinocytes (NHEK) were purchased from Promocell (Heidelberg, Germany) and grown on Thincerts™ in proprietary medium containing 0.06 mM calcium chloride. ‘Thincerts’ are small chambers containing a filter on which the cells are grown. The Thincert™ is housed within a conventional 12 well tissue culture plate. This arrangement allows treatment of the cells from either the basal or apical side.
When the cells were confluent, the medium was replaced with new medium but containing 1.8 mM calcium chloride. This induces tight junction formation in NHEK. In experiments where plant polyphenols were tested, a known volume of the plant polyphenol (dissolved in vehicle at a known concentration) was added to both apical and basal chambers of the Thincert™ at the same time as the medium was replaced. In this experiment the plant polyphenols quercetin, Myricetin and Kaempferol were tested.
Tight junctions form over 4 days and this was monitored by measuring the transepithelial electrical resistance (TEER) using an EVOM (world precision instruments). TEER was measured every 24 hours post addition of the test polyphenols and the TEER of control untreated cell monolayers was compared to that of treated cell monolayers.
The methodology set out in Example 6 was repeated, using quercetin at different concentrations. The results are shown in FIG. 8 in which the first bar represents the results for control—untreated cells, the second bar represents the results for cells treated with 100 μM quercetin and the third bar represents the results for cells treated with 10 μM quercetin (see key below). The y-axis represents TEER at 4 days (Ohms.cm^2).

[2] = test system: Normal primary human keratinocytes (NHEK); test: Transepithelial electrical resistance (TEER) in NHEK after calcium switch, UCA isomers; type: cell-based; details: for Effect on TEER: differentiated NHEK vs untreated cells
From the text: Transepithelial electrical resistance (TEER) measurements are used in epithelial biology as a marker of TJ integrity. Electrical resistance is a measure of how easily ions can pass through a particular transport route. The higher the resistance the harder it is for ions to pass. Whilst the TEER of a cell monolayer is a function of both transcellular and paracellular transport routes, the value of TEER is, however, dominated by the contribution from the paracellular route. TEER of monolayers can be measured using an Epithelial Voltmeter (for example EVOM from WPI Ltd). This instrument passes a current across a monolayer of cells and calculates the resistance according to Ohm's law (V=IR, where V is potential difference, I is current and R is resistance). Therefore increased TEER means […] TJ function. Preferably TEER measurements are carried out at room temperature.
Normal primary human keratinocytes (NHEK) were grown on Thincerts™ in medium containing 0.6 mM calcium until the cells were confluent. TJ formation was the induced by calcium switch and 25 ug/ml cis-UCA was added to the cells which were incubated for 96 hours and the transepithelial electrical resistance (TEER) measured every 24 hours post calcium switch.
(§1) Exposure of human skin to solar simulated ultraviolet radiation (UVR) transiently impairs skin barrier function (SBF) which recovers over a period of 2-14 days. […] Trans-urocanic acid (trans-UCA) is a major epidermal chromophore located in the stratum corneum and exposure of human skin to UVR photoisomerises trans-UCA to cis-UCA. In a previous Affymetrix study, the Cld-1 encoding gene, CLDN1, was listed as one of several markers induced by cis- but not trans-UCA, in normal human epidermal keratinocytes (NHEK) (Kaneko et al, J Immunol 2008, 181, 217-24). We therefore examined UCA isomer-dependent changes in Cld-1 protein expression (assessed by immunoblotting) and TJ function (assessed as transepithelial electrical resistance; TEER) in differentiated NHEK in vitro.

[3] = test system: claudins 1 and 4, occludin and ZO-1 mRNA; test: Real-time PCR of TJ gene message levels in NHEK; type: cell-based, human; details: 25 ug/ml, 48 hours, vs non-treated keratinocytes
Procedure: Normal primary human keratinocytes (NHEK) were grown in proprietary medium containing 0.6 mM calcium chloride. When the cells reached confluence they were placed in medium containing […] calcium chloride (calcium switch) and 25 ug/ml cis-UCA was added. Cells were incubated for 48 hours and message levels for the TJ genes claudins 1 and 4, occludin and ZO-1 were quantified using real-time PCR using non-treated keratinocytes as a control (FIG. 3).

claudin 1 = test: Claudin 1 protein levels in NHEK by immunoblot; type: cell-based, human; details: for Effect on claudin 1 protein levels: 24-96 hours post treatment, immunoblot
Procedure: Normal primary human keratinocytes (NHEK) were grown in proprietary medium containing 0.6 mM calcium chloride. When the cells reached confluence they were placed in medium containing 1.8 mM calcium chloride (calcium switch) and either cis-UCA, irradiated trans-UCA, unirradiated trans-UCA or control medium. Cells were the incubated for 96 hours during which time TJs form. At 24, 48, 72 or 96 hours post treatment, cells were harvested and claudin 1 levels analysed by immunoblot.
NHEK (growing as described above) were treated with different concentrations of cis-UCA for 48 hours after which claudin 1 levels were examined using immunoblotting.
as §1

O=c1c(O)c(-c2cc(O)c(O)c(O)c2)oc2cc(O)cc(O)c12 [Myricetin]
Effect on TEER at day four vs untreated control [1]: significantly increase

O=C(O)/C=C\c1c[nH]cn1 [cis-UCA, cis-urocanic acid]
TEER higher than in untreated cells ([2]; 25 ug/ml cis-UCA, up to 96 hours post calcium switch): approximately 150 ohms.cm^2 | Effect on TEER [2]: higher | TEER higher than in untreated cells ([2]; differentiated NHEK, n=6, p=0.004): ~150 ohms/cm^2 | Levels of mRNA for claudins 1, 4, occludin and ZO-1 [3]: increases | Effect on claudin 1 protein levels (claudin 1): time dependent increase | Effect on claudin 1 protein levels (claudin 1; listed as Cis-UCA): time and concentration dependent increase | Dose dependence of claudin 1 protein levels (claudin 1; 48 hours, greatest at 25 ug/ml): dose dependent increase | Increase in Cld-1 protein (claudin 1; maximal 48 h post-treatment with 25 μg/ml, n=4, p=0.02): ~3 fold

O=c1c(O)c(-c2ccc(O)cc2)oc2cc(O)cc(O)c12 [Kaempferol]
Time to barrier formation ([1]; 100 μM): reduces | Effect on TEER at day four vs untreated control [1]: increases

O=C(O)/C=C/c1cnc[nH]1 [trans-UCA, trans-urocanic acid, reference compound]
Effect on TEER [2]: no effect | Effect on claudin 1 protein levels (claudin 1): no effect | Effect on claudin 1 protein levels (claudin 1; listed as unirradiated trans-UCA): does not; also recorded: no effect

O=c1c(O)c(-c2ccc(O)c(O)c2)oc2cc(O)cc(O)c12 [quercetin]
Effect on TEER at day four vs untreated control [1]: significantly increase | Dose dependence of TEER at 4 days ([1]; 100 μM vs 10 μM quercetin): higher quantities of quercetin have a more beneficial effect

Source: patent publication US20140086977A1, “TIGHT JUNCTIONS MODULATORS” (THE UNIVERSITY OF MANCHESTER, priority 2011, published 2014)
